From article PMC6218639, “The calcium sensitizer drug MCI-154 binds the structural C-terminal domain of cardiac troponin C” (Biochemistry and Biophysics Reports, 2018) come the findings set out here.

The target in the assay is T1, cardiac troponin C (cTnC) (Homo sapiens, UniProt P63316, C35S/C84S).
T1 construct: gene TNNC1; cTnC residues 1–161
Description: 2D 1H, […]-HSQC NMR titration (KD […]), confirmed by ITC. In kind it is binding. Background: ITC needs no label: the signal is the heat of the interaction.

As usually defined, the Kd is a measure of binding affinity in units of concentration.

Structures are written as SMILES.

The compound `O=C1CCC(c2ccc(Nc3ccncc3)cc2)=NN1` [MCI-154, 6-(4-(pyridin-4-ylamino)phenyl)-4,5-dihydropyridazin-3(2H)-one] displayed a Kd of 500 ± 100 µM.
